For 39 compounds, IC50 and GI50 results are on record in ChEMBL document CHEMBL3822358 (J Med Chem, 2016).

One test has as its target Insulin receptor (Homo sapiens, UniProt P06213).
Test [1] has as its target ALK tyrosine kinase receptor (Homo sapiens, UniProt Q9UM73).
Description: Inhibition of human ALK using poly[Glu:Tyr] (4:1) as substrate and [gamma-33P]ATP measured after 1 hr
The nature of test [2]: cells. Particulars: Homo sapiens, KARPAS-299, 72 h.
Description: Antiproliferative activity against human ALK-positive KARPAS299 cells assessed as reduction in cell viability measured after 72 hrs by CellTiter 96 aqueous one solution cell proliferation assay
Test [3] addresses Insulin-like growth factor 1 receptor (Homo sapiens, UniProt P08069).
The nature of test [4]: cells. Particulars: Homo sapiens, U-937, 72 h.
Description: Antiproliferative activity against human ALK-negative U937 cells assessed as reduction in cell viability measured after 72 hrs by CellTiter 96 aqueous one solution cell proliferation assay

SMILES strings stand for the structures.

What is called IC50 is the midpoint of a concentration-inhibition curve. A low value points to greater potency. A word on the GI50: it is the concentration giving 50% growth inhibition. A higher GI50 goes with lower sensitivity of the cells.

Insulin-like growth factor 1 receptor, sequence (P08069 31-736 limits assumed): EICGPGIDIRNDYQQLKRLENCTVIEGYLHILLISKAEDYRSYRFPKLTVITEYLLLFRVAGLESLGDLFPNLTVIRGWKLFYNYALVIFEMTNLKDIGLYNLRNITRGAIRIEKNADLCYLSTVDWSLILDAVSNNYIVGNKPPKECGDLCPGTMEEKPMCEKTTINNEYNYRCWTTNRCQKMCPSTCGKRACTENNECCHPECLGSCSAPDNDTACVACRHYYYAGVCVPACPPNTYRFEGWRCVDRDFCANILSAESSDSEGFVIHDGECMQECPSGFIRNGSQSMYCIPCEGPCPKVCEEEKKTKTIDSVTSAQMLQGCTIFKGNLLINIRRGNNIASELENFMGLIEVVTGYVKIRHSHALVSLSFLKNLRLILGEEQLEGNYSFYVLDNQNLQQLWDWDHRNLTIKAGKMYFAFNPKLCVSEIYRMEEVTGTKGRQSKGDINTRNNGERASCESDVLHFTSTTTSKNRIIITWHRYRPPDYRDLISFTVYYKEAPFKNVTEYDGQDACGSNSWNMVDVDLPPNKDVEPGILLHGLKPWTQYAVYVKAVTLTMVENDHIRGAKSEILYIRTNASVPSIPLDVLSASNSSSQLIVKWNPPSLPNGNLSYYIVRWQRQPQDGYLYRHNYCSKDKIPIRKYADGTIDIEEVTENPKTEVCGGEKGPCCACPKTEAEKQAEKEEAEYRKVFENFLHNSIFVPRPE
Insulin-like growth factor 1 receptor, sequence (P08069 741-1367 limits assumed): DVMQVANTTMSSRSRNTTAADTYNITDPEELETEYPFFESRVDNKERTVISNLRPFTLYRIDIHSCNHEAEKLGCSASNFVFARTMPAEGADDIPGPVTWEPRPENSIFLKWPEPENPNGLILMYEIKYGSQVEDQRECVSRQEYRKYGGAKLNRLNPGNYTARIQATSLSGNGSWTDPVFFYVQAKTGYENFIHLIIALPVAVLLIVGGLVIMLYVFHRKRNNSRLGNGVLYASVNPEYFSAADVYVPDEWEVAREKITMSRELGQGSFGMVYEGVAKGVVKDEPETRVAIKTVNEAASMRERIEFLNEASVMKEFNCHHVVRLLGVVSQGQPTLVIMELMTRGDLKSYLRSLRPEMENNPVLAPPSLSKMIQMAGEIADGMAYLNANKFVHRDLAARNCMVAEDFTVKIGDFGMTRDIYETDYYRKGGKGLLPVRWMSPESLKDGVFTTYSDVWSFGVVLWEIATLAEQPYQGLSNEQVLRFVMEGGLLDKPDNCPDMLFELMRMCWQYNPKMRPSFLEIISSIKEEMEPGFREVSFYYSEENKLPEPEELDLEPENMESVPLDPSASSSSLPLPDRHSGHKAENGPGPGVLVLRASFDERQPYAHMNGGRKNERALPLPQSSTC
ALK tyrosine kinase receptor, sequence (Q9UM73 whole entry): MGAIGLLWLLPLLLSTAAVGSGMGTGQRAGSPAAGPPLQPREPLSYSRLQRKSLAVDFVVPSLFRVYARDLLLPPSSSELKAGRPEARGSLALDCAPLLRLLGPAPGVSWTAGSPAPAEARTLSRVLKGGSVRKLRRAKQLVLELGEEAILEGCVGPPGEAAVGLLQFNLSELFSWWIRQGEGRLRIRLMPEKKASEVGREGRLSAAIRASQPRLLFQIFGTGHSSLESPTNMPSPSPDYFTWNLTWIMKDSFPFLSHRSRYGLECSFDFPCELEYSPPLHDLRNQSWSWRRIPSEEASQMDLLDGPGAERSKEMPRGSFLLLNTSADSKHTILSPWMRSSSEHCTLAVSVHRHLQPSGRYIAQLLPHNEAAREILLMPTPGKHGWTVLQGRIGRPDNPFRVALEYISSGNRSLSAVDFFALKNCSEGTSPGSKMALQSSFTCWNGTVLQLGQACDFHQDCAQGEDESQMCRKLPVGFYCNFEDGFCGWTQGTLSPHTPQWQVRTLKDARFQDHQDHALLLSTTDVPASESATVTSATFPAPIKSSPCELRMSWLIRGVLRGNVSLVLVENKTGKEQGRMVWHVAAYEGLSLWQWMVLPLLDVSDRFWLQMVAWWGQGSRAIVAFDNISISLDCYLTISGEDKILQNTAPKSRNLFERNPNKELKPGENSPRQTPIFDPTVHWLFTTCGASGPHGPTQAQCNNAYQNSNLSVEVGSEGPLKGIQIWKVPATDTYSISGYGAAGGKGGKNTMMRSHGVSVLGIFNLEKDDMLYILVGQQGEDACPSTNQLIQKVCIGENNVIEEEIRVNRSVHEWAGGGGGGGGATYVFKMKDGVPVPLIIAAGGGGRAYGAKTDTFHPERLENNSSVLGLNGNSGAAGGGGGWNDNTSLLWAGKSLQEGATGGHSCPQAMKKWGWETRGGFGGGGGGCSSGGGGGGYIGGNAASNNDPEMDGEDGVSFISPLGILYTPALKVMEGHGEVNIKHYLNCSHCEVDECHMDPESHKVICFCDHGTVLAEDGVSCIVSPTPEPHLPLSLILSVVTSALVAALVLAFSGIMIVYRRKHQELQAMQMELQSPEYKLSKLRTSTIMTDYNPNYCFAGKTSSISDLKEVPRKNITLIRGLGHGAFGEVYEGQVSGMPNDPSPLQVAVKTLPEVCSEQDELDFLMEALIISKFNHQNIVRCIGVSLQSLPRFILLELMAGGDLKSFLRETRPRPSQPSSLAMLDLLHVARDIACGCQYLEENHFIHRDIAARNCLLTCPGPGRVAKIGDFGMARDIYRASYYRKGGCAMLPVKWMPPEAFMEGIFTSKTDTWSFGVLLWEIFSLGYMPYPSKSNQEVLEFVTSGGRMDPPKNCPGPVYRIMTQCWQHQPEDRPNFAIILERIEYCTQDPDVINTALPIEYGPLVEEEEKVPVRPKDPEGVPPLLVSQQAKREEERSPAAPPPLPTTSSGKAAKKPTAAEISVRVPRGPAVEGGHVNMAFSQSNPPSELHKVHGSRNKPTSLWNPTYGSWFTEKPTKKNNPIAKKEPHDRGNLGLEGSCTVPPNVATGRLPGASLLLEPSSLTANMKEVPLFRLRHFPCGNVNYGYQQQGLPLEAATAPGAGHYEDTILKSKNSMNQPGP
Insulin receptor, sequence (P06213 28-758 limits assumed): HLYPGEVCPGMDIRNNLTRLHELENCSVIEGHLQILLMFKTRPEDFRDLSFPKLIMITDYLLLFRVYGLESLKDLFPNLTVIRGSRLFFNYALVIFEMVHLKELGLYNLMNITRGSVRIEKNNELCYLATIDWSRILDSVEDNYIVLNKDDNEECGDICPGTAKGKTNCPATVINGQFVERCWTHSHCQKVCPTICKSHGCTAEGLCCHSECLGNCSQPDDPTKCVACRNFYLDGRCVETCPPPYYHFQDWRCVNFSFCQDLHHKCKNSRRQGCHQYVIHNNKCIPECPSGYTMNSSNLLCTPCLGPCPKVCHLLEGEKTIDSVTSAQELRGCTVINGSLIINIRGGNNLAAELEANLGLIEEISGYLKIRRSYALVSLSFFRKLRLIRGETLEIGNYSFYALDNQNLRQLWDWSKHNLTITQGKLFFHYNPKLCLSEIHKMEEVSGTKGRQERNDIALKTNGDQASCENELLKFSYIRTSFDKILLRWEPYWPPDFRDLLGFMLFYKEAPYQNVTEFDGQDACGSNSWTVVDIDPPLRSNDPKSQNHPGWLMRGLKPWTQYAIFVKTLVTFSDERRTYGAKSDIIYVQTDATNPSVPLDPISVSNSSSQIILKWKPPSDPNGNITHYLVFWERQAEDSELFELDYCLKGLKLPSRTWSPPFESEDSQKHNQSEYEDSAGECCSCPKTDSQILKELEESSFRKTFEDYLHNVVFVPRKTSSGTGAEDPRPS
Insulin receptor, sequence (P06213 763-1382 limits assumed): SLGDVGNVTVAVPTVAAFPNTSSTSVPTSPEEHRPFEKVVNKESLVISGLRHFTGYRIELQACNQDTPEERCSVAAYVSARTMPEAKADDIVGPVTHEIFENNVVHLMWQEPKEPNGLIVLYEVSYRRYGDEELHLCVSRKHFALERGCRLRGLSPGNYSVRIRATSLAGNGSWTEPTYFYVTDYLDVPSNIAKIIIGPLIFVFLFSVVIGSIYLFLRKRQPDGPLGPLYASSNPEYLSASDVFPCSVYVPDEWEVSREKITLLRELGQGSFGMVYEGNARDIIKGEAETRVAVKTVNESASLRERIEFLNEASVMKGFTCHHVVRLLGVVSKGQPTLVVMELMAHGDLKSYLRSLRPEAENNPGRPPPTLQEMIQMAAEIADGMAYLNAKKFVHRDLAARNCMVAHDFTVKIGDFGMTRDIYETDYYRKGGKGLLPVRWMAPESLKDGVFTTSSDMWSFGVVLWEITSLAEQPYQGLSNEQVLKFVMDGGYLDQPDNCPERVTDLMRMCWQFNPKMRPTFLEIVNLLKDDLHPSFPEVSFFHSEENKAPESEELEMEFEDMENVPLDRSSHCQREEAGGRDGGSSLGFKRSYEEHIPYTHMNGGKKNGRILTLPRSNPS
Description for Insulin receptor: Inhibition of human InsR using myelin basic protein as substrate and [gamma-33P]ATP measured after 1 hr

Turning to `COc1cc(OC2CCN(C)C2)ccc1Nc1ncc(Cl)c(Nc2ccccc2P(C)(C)=O)n1` (stereo not given), the half-maximal inhibitory concentration (IC50) against Insulin receptor came out at 397 nM; in test [1], 0.33 nM; in the test “cells [2]”, 65.1 nM; in test [3], 100 nM; in “cells [4]”, 6330 nM.
The matching figures for `COc1cc(N2CCC(N3CCN(C)CC3)CC2)ccc1Nc1ncc(F)c(Nc2ccccc2P(C)(C)=O)n1`: 1680 nM, 0.39 nM, 147 nM, 143 nM and 24200 nM.
For `COc1cc(N2CCC(N3CCCCC3)C2)ccc1Nc1ncc(Cl)c(Nc2ccccc2P(C)(C)=O)n1` (stereo not given), in that order: 270 nM, 0.88 nM, 66.7 nM, 81.5 nM and 2390 nM.
The matching figures for `COc1cc(P(C)(C)=O)ccc1Nc1ncc(Cl)c(Nc2ccccc2S(=O)(=O)C(C)C)n1`: 9.9 nM, 0.31 nM, 20 nM, 1.9 nM and 4840 nM.
As to `COc1ccccc1Nc1ncc(Cl)c(Nc2ccccc2S(=O)(=O)C(C)C)n1`, the results for the IC50 (in test [1]; in “cells [2]”; in “cells [4]”) were 2.1 nM, 349 nM and 20800 nM, respectively.
Turning to `COc1cc(N2CCC(N3CCN(C)CC3)CC2)ccc1Nc1ncc(Cl)c(Nc2ccccc2S(C)(=O)=O)n1`, the IC50 against Insulin receptor was found to be 5.1 nM; in test [1], 0.59 nM; in test [3] it was 0.76 nM.
On to `COc1cc(N2CCN(C(C)=O)CC2)ccc1Nc1ncc(Cl)c(Nc2ccccc2P(C)(C)=O)n1`, for which the half-maximal inhibitory concentration (IC50) is 103 nM at Insulin receptor, 79.9 nM in “cells [2]”, 32.5 nM in test [3] and 5450 nM in the test “cells [4]”.
For the compound `COc1cc(P(C)(C)=O)ccc1Nc1ncc(Cl)c(Nc2ccccc2OC)n1`, the IC50 was determined as 55.2 nM against Insulin receptor; 0.96 nM in test [1]; 278 nM in “cells [2]”; 22.1 nM in test [3]; 2910 nM in “cells [4]”.
For `COc1cc(N2CCC(N3CCN(C)CC3)CC2)c(F)cc1Nc1ncc(Cl)c(Nc2ccccc2P(C)(C)=O)n1`, in that order: 1180 nM, 1.03 nM, 162 nM, 59.5 nM and 1230 nM.
Turning to `COc1cc(N2CCC(N3CCN(C)CC3)CC2)ccc1Nc1ncc(Cl)c(Nc2ccccc2C(C)=O)n1`, the IC50 on Insulin receptor came to 2.16 nM; in test [1] it was 1.59 nM; in test [3], 1.33 nM.
Regarding `CCP(=O)(CC)c1ccccc1Nc1nc(Nc2ccc(N3CCC(N4CCN(C)CC4)CC3)cc2OC)ncc1Cl`, the IC50 against Insulin receptor was found to be 314 nM; in test [1], 0.12 nM; in the test “cells [2]”, 169 nM; in test [3] it was 45.1 nM; in the test “cells [4]”, 3460 nM.
Consider `COc1cc(N2CCC(N3CCN(C)CC3)CC2)ccc1Nc1ncc(Cl)c(Nc2ccccc2C(C)O)n1` (stereo not given), for which the 50% inhibitory concentration (IC50) against Insulin receptor came out at 43.2 nM; in test [1], 0.99 nM; in test [3] it was 36.1 nM.
Regarding `COc1cc(N2CCC(N3CCN(C)CC3)CC2)ccc1Nc1ncc(Cl)c(Nc2ccccc2I)n1`, the 50% inhibitory concentration (IC50) was determined as 13.7 nM on Insulin receptor, 1.36 nM in test [1], 705 nM in the test “cells [2]” and 6.2 nM in test [3].
Take `COc1cc(N2CCN(C3CCN(C)CC3)CC2)ccc1Nc1ncc(Cl)c(Nc2ccccc2P(C)(C)=O)n1`: the half-maximal inhibitory concentration (IC50) on Insulin receptor came out at 285 nM; in test [1], 0.28 nM; in “cells [2]”, 101 nM; in test [3], 43.3 nM; in “cells [4]”, 4920 nM.
The matching figures for `COc1cc(N2CCC(N3CCCN(C)CC3)CC2)ccc1Nc1ncc(Cl)c(Nc2ccccc2P(C)(C)=O)n1`: 162 nM, 0.49 nM, 105 nM, 38.8 nM and 3390 nM.
Take `COc1cc(N2CCC(N3CCN(C)CC3)CC2)ccc1Nc1ncc(Cl)c(Nc2ccccc2S(=O)(=O)N(C)C)n1`: the half-maximal inhibitory concentration (IC50) against Insulin receptor was found to be 8.44 nM; in test [1], 0.75 nM; in test [3], 1.93 nM.
Consider `COc1cc(N2CCC(N3CCN(C)CC3)CC2)ccc1Nc1ncc(OC)c(Nc2ccccc2P(C)(C)=O)n1`, for which the IC50 is 1680 nM on Insulin receptor; 1.19 nM in test [1]; 429 nM in the test “cells [2]”; 117 nM in test [3]; 13900 nM in “cells [4]”.
The matching figures for `CCOc1cc(N2CCC(N3CCN(C)CC3)CC2)ccc1Nc1ncc(Cl)c(Nc2ccccc2P(C)(C)=O)n1`: 253 nM, 0.75 nM, 58.9 nM, 103 nM and 22400 nM.
The matching figures for `COc1cc(N2CC[C@@H](N(C)C)C2)ccc1Nc1ncc(Cl)c(Nc2ccccc2P(C)(C)=O)n1`: 489 nM, 0.33 nM, 66.9 nM, 42.7 nM and 1170 nM.
For the compound `COc1cc(N2CCC(N3CCN(C)CC3)CC2)ccc1Nc1ncc(Cl)c(Nc2ccccc2C(N)=O)n1`, the half-inhibitory concentration (IC50) turned out to be 3.4 nM against Insulin receptor, 0.8 nM in test [1] and 1.4 nM in test [3].
The matching figures for `COc1cc(N2CCC(N3CCN(C)CC3)CC2)ccc1Nc1ncc(Cl)c(Nc2ccccc2C(=O)N(C)C)n1`: 6.05 nM, 4.77 nM and 6.17 nM.
For the compound `COc1cc(P(C)(C)=O)ccc1Nc1ncc(Cl)c(Nc2ccccc2S(C)(=O)=O)n1`, the 50% inhibitory concentration (IC50) against Insulin receptor worked out at 4.7 nM; in test [1] it was 0.33 nM; in the test “cells [2]” it was 405 nM; in test [3], 0.4 nM; in “cells [4]”, 4810 nM.
As to `COc1cc(N2CCC(N3CCN(C)CC3)CC2)ccc1Nc1ncc(Cl)c(Nc2ccccc2C#N)n1`, the results for the concentration for half-maximal inhibition (IC50) (against Insulin receptor; in test [1]; in test [3]) were 128 nM, 1.86 nM and 51.6 nM, respectively.
Regarding `COc1cc(P(C)(C)=O)ccc1Nc1ncc(Cl)c(Nc2ccccc2C(N)=O)n1`, the concentration for half-maximal inhibition (IC50) on Insulin receptor turned out to be 14.1 nM; in test [1], 0.68 nM; in the test “cells [2]”, 613 nM; in test [3], 0.11 nM; in “cells [4]” it was 2370 nM.
Take `COc1cc(N2CCC(N3CCN(C)CC3)CC2)ccc1Nc1ncc(Cl)c(Nc2ccccc2)n1`: the values for the IC50 (against Insulin receptor; in test [1]; in test [3]) were 81.7 nM, 9.9 nM and 51.6 nM, respectively.
In the case of `CNC(=O)CN1CCN(c2ccc(Nc3ncc(Cl)c(Nc4ccccc4P(C)(C)=O)n3)c(OC)c2)CC1`, the IC50 amounted to 459 nM against Insulin receptor; 3.1 nM in test [1]; 270 nM in “cells [2]”; 125 nM in test [3]; 7000 nM in “cells [4]”.
The compound `COc1cc(N2CCC(N3CCN(C)CC3)CC2)ccc1Nc1ncc(C(C)=O)c(Nc2ccccc2P(C)(C)=O)n1` registered a half-maximal inhibitory concentration (IC50) in test [1] of 291 nM.
Regarding `CC(C)Oc1cc(N2CCC(N3CCN(C)CC3)CC2)ccc1Nc1ncc(Cl)c(Nc2ccccc2P(C)(C)=O)n1`, the half-inhibitory concentration (IC50) against Insulin receptor was found to be 700 nM; in test [1] it was 0.68 nM; in the test “cells [2]”, 54.6 nM; in test [3], 203 nM; in the test “cells [4]”, 21500 nM.
In the case of `COc1cc(N2CCC(N3CCN(C)CC3)CC2)c(C)cc1Nc1ncc(Cl)c(Nc2ccccc2P(C)(C)=O)n1`, the 50% inhibitory concentration (IC50) against Insulin receptor was found to be 171 nM; in test [1] it was 0.86 nM; in test [3], 27 nM. For the same compound, the 50% growth inhibitory concentration (GI50) in “cells [2]” came out at 16 nM; in the test “cells [4]” it was 1280 nM.
Turning to `COc1cc(P(C)(C)=O)ccc1Nc1ncc(Cl)c(Nc2ccccc2P(C)(C)=O)n1`, the 50% inhibitory concentration (IC50) at Insulin receptor was determined as 726 nM; in test [1] it was 1.06 nM; in the test “cells [2]”, 738 nM; in test [3], 139 nM; in the test “cells [4]”, 13200 nM.
The matching figures for `COc1cc(N2CCC(N(C)C)CC2)ccc1Nc1ncc(Cl)c(Nc2ccccc2P(C)(C)=O)n1`: 100 nM, 0.07 nM, 41.5 nM, 3.2 nM and 1720 nM.
On to `COc1cc(-c2cnn(C3CCNCC3)c2)ccc1Nc1ncc(Cl)c(Nc2ccccc2P(C)(C)=O)n1`, for which the IC50 turned out to be 702 nM against Insulin receptor; 0.76 nM in test [1]; 322 nM in the test “cells [2]”; 98.1 nM in test [3]; 6230 nM in the test “cells [4]”.
For `COc1cc(N2CCCN(C)CC2)ccc1Nc1ncc(Cl)c(Nc2ccccc2P(C)(C)=O)n1`, in that order: 339 nM, 0.72 nM, 53.9 nM, 77.5 nM and 2970 nM.
The matching figures for `COc1cc(N2CCOCC2)ccc1Nc1ncc(Cl)c(Nc2ccccc2P(C)(C)=O)n1`: 399 nM, 0.24 nM, 77.4 nM, 51.4 nM and 5990 nM.
For `COc1cc(N2CCC(N3CCN(C)CC3)CC2)ccc1Nc1ncc(C)c(Nc2ccccc2P(C)(C)=O)n1`, in that order: 483 nM, 0.42 nM, 46.9 nM, 128 nM and 5310 nM.
As for `COc1cc(N2CCC(N3CCN(C)CC3)CC2)ccc1Nc1ncc(Cl)c(Nc2ccccc2OC)n1`, the concentration for half-maximal inhibition (IC50) on Insulin receptor was 26 nM; in test [1] it was 1.88 nM; in the test “cells [2]”, 851 nM; in test [3], 8.7 nM.
For the compound `COc1cc(N2CCC(N3CCN(C)CC3)CC2)ccc1Nc1ncc(C2CC2)c(Nc2ccccc2P(C)(C)=O)n1`, the IC50 against Insulin receptor turned out to be 367 nM; in test [1], 3.23 nM; in “cells [2]”, 278 nM; in test [3], 434 nM; in “cells [4]”, 10600 nM.
The matching figures for `COc1cc(OCCCN2CCCC2)ccc1Nc1ncc(Cl)c(Nc2ccccc2P(C)(C)=O)n1`: 284 nM, 0.22 nM, 113 nM, 17.4 nM and 2310 nM.
As to `COc1cc(P(C)(C)=O)ccc1Nc1ncc(Cl)c(Nc2ccccc2C(C)=O)n1`, the half-inhibitory concentration (IC50) was found to be 0.88 nM at Insulin receptor; 0.79 nM in test [1]; 251 nM in “cells [2]”; 0.47 nM in test [3]; 1420 nM in the test “cells [4]”.
